{
  "source": "patent US9220723B2",
  "about": "“Cancer therapy” (BRANDEIS UNIVERSITY, priority 2010, dated 2015)",
  "key": {"[1]": {"conditions": "mouse, in vivo; cited from earlier work"}, "[2]": {"tested_on": "NRASD12 expressing NIH3T3 cells", "experiment": "Immunofluorescence localization of NRASD12 after FASN inhibitor treatment", "format": "cell-based", "conditions": "1 uM, 3 hrs post-treatment, anti-myc-tag immunofluorescence", "procedure": "Localization of myc-tagged NRASD12 in MSCV-GFP-ires-2xmycNRASD12 infected NIH3T3 cells 3 hrs post-treatment with 1 uM cerulenin or 1 uM C75. NRASD12 were visualized by confocal microscope after probing with anti-myc-tag (9E10) antibody overnight at 4° C. and AlexaFluor-conjugated secondary antibody (red).\nAs a proof of principle studies of the effect of FASN inhibitors on NRAS palmitoylation/localization, we examined the effect of cerulenin and C75 on NRASD12 expressing NIH3T3 cells."}, "[3]": {"conditions": "caused by highly reactive epoxy group; cited from earlier work"}, "murine DHHC9 mRNA": {"tested_on": "murine DHHC9 mRNA", "experiment": "Real-time RT-PCR of DHHC9 mRNA after siRNA transfection", "format": "cell-based", "conditions": "NIH3T3 cells, compared to scrambled siRNA", "method": "(§1) (A) Relative DHHC9 (SEQ ID NO: 10) mRNA levels in NIH3T3 cells transfected by either DHHC9 (SEQ ID NO: 10) siRNA or control siRNA were determined by real-time RT-PCR. (B) GFP-NRASD12 expressing NIH3T3 cells transfected by either DHHC9 (SEQ ID NO: 10) siRNA or control siRNA were visualized by confocal microscope. Original magnification was 630×.\n(§2) To determine the role of DHHC9 (SEQ ID NO: 10) in NRAS biology, we first examined the effect of DHHC9 (SEQ ID NO: 10) downregulation on cellular localization of oncogenic NRAS (NRASD12). RNA interference (RNAi) is a powerful tool for gene function studies and holds promise for the development of new molecular medicines. RNAi usually downregulate but often not abolish the target mRNAs, which mimic therapies more than gene-knockout. In addition, since DHHC9 (SEQ ID NO: 10) may have substrates other than RAS, knocking out the DHHC9 (SEQ ID NO: 10) gene might be toxic to cells. For these reasons we tested several small interference RNA (siRNA) specific to murine DHHC9 (SEQ ID NO: 10) for their ability to downregulate the DHHC9 (SEQ ID NO: 10) mRNA. […] Still further, the present invention provides systems for identifying cancer patients likely to respond to therapy that includes administration of one or more palmitoyl-acyl transferase inhibitors."}, "[4]": {"tested_on": "NIH3T3 cells expressing the GFP-NRASD12 fusion protein", "experiment": "Confocal localization of GFP-NRASD12 after DHHC9 siRNA transfection", "format": "cell-based", "conditions": "confocal microscopy", "method": "as §1, §2"}, "3T3-KRASD12 cells": {"tested_on": "3T3-KRASD12 cells", "experiment": "Cell morphology and foci (sphere) formation, 3T3-KRASD12", "format": "cell-based", "conditions": "3T3-KRASD12 cells cultured for 6 days", "method": "(§3) FIG. 16 illustrates the morphology of cultured NIH3T3 cells stably expressing the proteins and miRNAs indicated. Equal numbers (5×10^5) of cells were plated onto 100-mm plates after puromycin selection and were cultured for 6 days before representative pictures were taken (original magnification 100×)\n(§4) Both 3T3-NRASD12 ^28 and 3T3-KRAS4BD12 form sphere-like foci in culture, while 3T3-MiG cells grow as normal NIH3T3 cells (FIG. 16). […] We plated equal cell numbers of scrambled or FASN miRNA-transduced, puromycin-selected 3T3-NRASD12 or 3T3-KRASD12 cell lines cultured for 6 days and observed cell morphology and foci formation (FIG. 16). […] However, these cells had somewhat altered morphology, similar to those observed in 3T3-NRASD12^C181S cells."}, "FASN": {"tested_on": "FASN", "experiment": "Western blot of FASN expression after FASN miRNA transduction", "format": "cell-based", "conditions": "NIH3T3 cell lines, puromycin selected (data not shown)", "description": "(§5) We then examined the effect of knocking down FASN expression on RAS localization by the RNA interference (RNAi) approach. RNAi is endogenously mediated by microRNA (miRNA) ^30. miRNAs are generated from primary transcripts (pri-miRNAs) and processed into pre-miRNA and eventually mature miRNA. Artificial miRNAs are natural pri-miRNA in which the stem sequence of a miRNA has been substituted with a sequence targeting the gene of interest. In target cells, artificial miRNA undergoes the same processing steps of the parental pri-miRNA. A FASN specific small hairpin (sh) RNA (Open-Biosystems) was cloned into a MSCV-based retroviral shRNAmir (pSM2; Open-Biosystems) vector to generate an artificial miRNA for FASN (the cloning oligo for the FASN shRNA: 5′ TGCTGTTGACAGTGAGCGCCGCTTCTTAGAGATTGGCAAATAGTGAAGCCACAGATGTATTTGCCAATCTCTAAGAAGCGATGCCTACTGCCTCGGA 3′ (SEQ ID NO: 35)). The miRNA is under the control a U6 promoter and the vector includes a puromycin resistance gene under the control of phosphoglycerate kinase (PGK) eukaryotic promoter ^31. A scrambled shRNA (the cloning oligo: 5′ TGCTGTTGACAGTGAGCGCTTCCTCTCTTTCTCTCCCTTTA GTGAAGCCACAGATGTACAAGGGAGAGAAAGAGAGGAAGGATGCCTACTGCCTCGGA 3′ (SEQ ID NO: 36)) was similarly cloned into pSM2 as a control. […]"}, "[5]": {"tested_on": "NIH3T3 cells expressing GFP-KRAS4BD12", "experiment": "Confocal localization of GFP-KRAS4BD12 after FASN miRNA transduction", "format": "cell-based", "conditions": "confocal microscopy", "description": "(§6) Fixed and permeablized cells were stained with an anti-BIP antibody, followed by an alexafluor 635-conjugated secondary antibody, and visualized on a Leica TCS SP2 Spectral Confocal Microscope. Original magnification was 630×.\nas §5, with “^31.” for “^31. A scrambled shRNA (the cloning oligo: 5′ TGCTGTTGACAGTGAGCGCTTCCTCTCTTTCTCTCCCTTTA GTGAAGCCACAGATGTACAAGGGAGAGAAAGAGAGGAAGGATGCCTACTGCCTCGGA 3′ (SEQ ID NO: 36)) was similarly cloned into pSM2 as a control.”"}, "3T3-NRASD12 cells": {"tested_on": "3T3-NRASD12 cells", "experiment": "Cell morphology and foci (sphere) formation, 3T3-NRASD12", "format": "cell-based", "conditions": "3T3-NRASD12 cells cultured for 6 days", "method": "as §3, §4"}, "3T3-GFP-NRASD12 cells": {"tested_on": "3T3-GFP-NRASD12 cells", "experiment": "Confocal localization of GFP-NRASD12 after FASN miRNA transduction", "format": "cell-based", "conditions": "confocal microscopy", "description": "as §6\nas §5, with “^31.” for “^31. A scrambled shRNA (the cloning oligo: 5′ TGCTGTTGACAGTGAGCGCTTCCTCTCTTTCTCTCCCTTTA GTGAAGCCACAGATGTACAAGGGAGAGAAAGAGAGGAAGGATGCCTACTGCCTCGGA 3′ (SEQ ID NO: 36)) was similarly cloned into pSM2 as a control.”"}},
  "data": [
    {"molecule": "C=C1C(=O)OC(CCCCCCCC)C1C(=O)O", "note": "(centres unmarked) [C75]", "values": [
      {"measurement": "effects of treatment on metabolism, weight and feeding", "setting": "[1]", "value": "increased metabolism, rapid and significant weight loss, and fasting"},
      {"measurement": "localization of NRASD12", "setting": "[2]", "value": "mislocalized to internal membranes"}
    ]},
    {"molecule": "C/C=C/C/C=C/CCC(=O)[C@H]1O[C@H]1C(N)=O", "note": "[cerulenin, Cerulenin]", "values": [
      {"measurement": "localization of NRASD12", "setting": "[2]", "value": "mislocalized to internal membranes"},
      {"measurement": "stability", "setting": "[3]", "value": "innate instability"}
    ]},
    {"molecule": "DHHC9 siRNA: siRNA specific to murine DHHC9; sense SEQ ID NO: 37, antisense SEQ ID NO: 38 (sense GGAAGAAGAACUAUGUAUUAUAUGT; antisense ACAUAUAAUACAUAGUUCUUCUUCCCU; chemistry not given here)", "values": [
      {"measurement": "levels of DHHC9 mRNA", "setting": "murine DHHC9 mRNA", "value": "dramatically reduced"},
      {"measurement": "localization of GFP-NRASD12", "setting": "[4]", "value": "mislocalization of GFP-NRASD12 to internal membranes"}
    ]},
    {"molecule": "FASN miRNA: FASN specific small hairpin RNA (Open-Biosystems) cloned into pSM2 retroviral shRNAmir vector; cloning oligo SEQ ID NO: 35 (nucleic acid) DNA: TGCTGTTGACAGTGAGCGCCGCTTCTTAGAGATTGGCAAATAGTGAAGCCACAGATGTATTTGCCAATCTCTAAGAAGCGATGCCTACTGCCTCGGA", "values": [
      {"measurement": "sphere (foci) formation", "setting": "3T3-KRASD12 cells", "value": "formed spheres"},
      {"measurement": "FASN expression", "setting": "FASN", "value": "largely abolished"},
      {"measurement": "localization of GFP-KRAS4BD12", "setting": "[5]", "value": "localized to both the plasma membrane and internal membranes"},
      {"measurement": "sphere (foci) formation", "setting": "3T3-NRASD12 cells", "value": "no longer formed spheres"},
      {"measurement": "localization of GFP-NRAS", "setting": "3T3-GFP-NRASD12 cells", "value": "mislocalized to endomembranes"}
    ]}
  ]
}
